The assay addresses Glutamate NMDA receptor. Briefly: Antagonist activity of compound against rat N-methyl-D-aspartate glutamate receptor using 11 nM [3H]glycine. It is filed as functional.

One may read the IC50 as the point on the concentration scale where inhibition reaches its midpoint. Low values mean inhibition by little substance, high ones a need for much substance.

The molecule `O=C(O)/C(=C/c1c(C(=O)O)[nH]c2cc(Cl)cc(Cl)c12)c1ccncc1` had a concentration for half-maximal inhibition (IC50) of 151 nM.
As for `O=C(O)/C(=C/c1c(C(=O)O)[nH]c2cc(Cl)cc(Cl)c12)c1ccc(Cl)cc1Cl`, half-maximal inhibition (IC50) was put at 116 nM.
In the case of `O=C(NCCc1ccccc1)/C(=C/c1c(C(=O)O)[nH]c2cc(Cl)cc(Cl)c12)c1ccccc1` it was 224 nM.
Turning to `CN(C)C(=O)/C(=C/c1c(C(=O)O)[nH]c2cc(Cl)cc(Cl)c12)c1ccccc1`, the IC50 came to 68 nM. This IC50 lies about 3.3-fold lower than the previous one.
In the case of `O=C(O)/C(=C/c1c(C(=O)O)[nH]c2cc(Cl)cc(Cl)c12)c1ccccn1` it was 1020 nM; in that of `O=C(O)/C(=C/c1c(C(=O)O)[nH]c2cc(Cl)cc(Cl)c12)c1ccc(Cl)cc1`, 65 nM.
In the case of `N#C/C(=C/c1c(C(=O)O)[nH]c2cc(Cl)cc(Cl)c12)c1ccc(N)cc1` it was 4660 nM.
In the case of `COc1cccc(/C(=C\c2c(C(=O)O)[nH]c3cc(Cl)cc(Cl)c23)C(=O)O)c1` it was 117 nM.
On to `O=C(Nc1ccccc1)/C(=C/c1c(C(=O)O)[nH]c2cc(Cl)cc(Cl)c12)c1ccccc1`, for which the IC50 was determined as 15 nM.
Consider `O=C(O)c1[nH]c2cc(Cl)cc(Cl)c2c1/C=C/C(=O)N1CCCCC1`, for which the IC50 is 38 nM.
With `O=C(O)/C(=C/c1c(C(=O)O)[nH]c2cc(Cl)cc(Cl)c12)c1ccccc1Cl` the figure was 212 nM.
With `CN(C)c1cccc(/C(=C\c2c(C(=O)O)[nH]c3cc(Cl)cc(Cl)c23)C(=O)O)c1` the figure was 225 nM; with `O=C(O)/C(=C\c1c(C(=O)O)[nH]c2cc(Cl)cc(Cl)c12)c1ccccc1`, 157 nM; with `COc1ccc(/C(=C\c2c(C(=O)O)[nH]c3cc(Cl)cc(Cl)c23)C(=O)O)cc1`, 136 nM.
As for `O=C(O)/C(=C/c1c(C(=O)O)[nH]c2cc(Cl)cc(Cl)c12)c1cccnc1`, the IC50 is 126 nM.
Regarding `CNC(=O)/C(=C/c1c(C(=O)O)[nH]c2cc(Cl)cc(Cl)c12)c1ccccc1`, 50 nM corresponded to half-maximal inhibition (IC50). Against the preceding molecule, the IC50 is about 2.5-fold lower.
In the case of `NC(=O)/C(=C/c1c(C(=O)O)[nH]c2cc(Cl)cc(Cl)c12)c1ccccc1` it was 20 nM; in that of `O=C(O)/C(=C/c1c(C(=O)O)[nH]c2cc(Cl)cc(Cl)c12)c1ccoc1`, 21 nM.
Take `O=C(O)/C(=C/c1c(C(=O)O)[nH]c2cc(Cl)cc(Cl)c12)c1ccc(Br)cc1`: it took 29 nM to reach half-maximal inhibition (IC50).
